Test results: US10975078B2, “Fused indazole pyridone compounds as antivirals” (priority 2017, dated 2021)

System: HBsAg secretion, HepG2-Clone42 cells (Tet-inducible HBV-expressing, HBV ayw strain)
Assay: HBsAg assay (HBsAg ELISA, secreted HBV sAg from HepG2-Clone42 cells)
Assay type: cell-based
Settings: Hepatitis B virus, read-out: HBsAg (nM), EC50 = concentration at which HBsAg secretion was reduced 50% compared to DMSO control
Description: HepG2-Clone42, a Tet-inducible HBV-expressing cell line with a stably integrated 1.3 mer copy of the HBV ayw strain, was generated based on the Tet-inducible HepAD38 cell line with slight modifications. Ladner S K, et al., Antimicrobial Agents and Chemotherapy. 41(8):1715-1720 (1997). HepG2-Clone42 cells were cultured in DMEM/F-12+Glutamax™ (Life Technologies, Carlsbad, Calif., USA), supplemented with 10% fetal bovine serum (Life Technologies), G-418 (Corning, Manassas, Va., USA) at a final concentration of 0.5 mg/mL, and 5 μg/mL Doxycycline (Sigma, St. Louis, Mo., USA) and maintained in 5% CO2 at 37° C.
HepG2-Clone42 cells were seeded into black clear-bottom 96-well plates at a concentration of 6.0×10^4 cells/well. 24 hours post-seeding, the cells were treated with 200 μl/well of media containing five-fold serial dilutions of compounds in DMSO. DMSO alone was used as the no drug control. The final DMSO concentration in all wells was 0.5%.
The HBsAg ELISA kit (Alpha Diagnostic International, San Antonio, Tex., USE, Catalog #4110) was used to determine the level (semi-quantitative) of secreted HBV sAg. The HBSAg ELISA assay was performed following the manufacturer's protocol as described.
Step 1. Pipet 100 μL each of compound or DMSO treated samples into HBsAg ELISA plates. Seal plates and incubate at room temp for 60 minutes.
Step 2. Aspirate samples and wash three times with Wash Buffer. Dispense 100 μL of antibody-HRP conjugate to each well. Incubate at room temp for 30 minutes.
Step 3. Aspirate samples and wash three times with Wash Buffer. Add 100 μL of TMB Substrate to all wells and incubate 15 minutes at room temp.
Step 4. Dispense 100 μL of Stop Solution to each well. Measure absorbance of ELISA plate at 450 nm.
Dose-response curves were generated and the EC50 value was defined as the compound concentration at which HBsAg secretion was reduced 50% compared to the DMSO control.
EC50 values were determined as follows:
Determine the percent of HBsAg secretion inhibition. Calculate the percent inhibition on of HBsAg secretion inhibition using the following equation: […]
where XC is the absorbance signal from compound-treated well; MB is average absorbance signal (background signal) for column 12 (no cells+HBsAg ELISA sample buffer) and MD is average absorbance signal from DMSO-treated wells. Then calculate EC50 values by non-linear regression using a four parameter curve logistic equation.
The curve fit model employed is XLFit Dose Response One Site Model 204: y=(A+((B−A)/(1+(10^((C−x)*D))))) where A is the minimum y value, B is the maximum y value, C is the log EC50 value, and D is the slope factor. In the following table+≥100 nM; 100 nM>++≥1 nM; 1 nM>+++

Row | Compound | EC50
1 | COCCOCCCOc1cccc2c3n(nc12)CC(C(C)(C)C)n1cc(C(=O)O)c(=O)cc1-3 (racemic) [Example 2.21, 6-(tert-butyl)-10-(3-(2-methoxyethoxy)propoxy)-2-oxo-6,7-dihydro-2H-pyrido[2′,1′:3,4]pyrazino[1,2-b]indazole-3-carboxylic Acid] | < 1 nM
2 | COCCOCCOc1cccc2c3n(nc12)CC(C(C)(C)C)n1cc(C(=O)O)c(=O)cc1-3 (racemic) [Example 2.12, 6-(tert-butyl)-10-(2-(2-methoxyethoxy)ethoxy)-2-oxo-6,7-dihydro-2H-pyrido[2′,1′:3,4]pyrazino[1,2-b]indazole-3-carboxylic Acid] | 1 to 100 nM
3 | CCOc1cccc2c3n(nc12)CC(C(C)(C)C)n1cc(C(=O)O)c(=O)cc1-3 (racemic) [Example 2.42, 6-(tert-butyl)-10-ethoxy-2-oxo-6,7-dihydro-2H-pyrido[2′,1′:3,4]pyrazino[1,2-b]indazole-3-carboxylic Acid] | < 1 nM
4 | COCC(C)Oc1cccc2c3n(nc12)CC(C(C)(C)C)n1cc(C(=O)O)c(=O)cc1-3 (single isomer, unassigned) [Example 2.35-I, 6-(tert-butyl)-10-((1-methoxypropan-2-yl)oxy)-2-oxo-6,7-dihydro-2H-pyrido[2′,1′:3,4]pyrazino[1,2-b]indazole-3-carboxylic Acid] | 1 to 100 nM
5 | CC(C)(C)C1Cn2nc3c(OCC4(C#N)CC4)cccc3c2-c2cc(=O)c(C(=O)O)cn21 (racemic) [Example 2.46, 6-(tert-butyl)-10-((1-cyanocyclopropyl)methoxy)-2-oxo-6,7-dihydro-2H-pyrido[2′,1′:3,4]pyrazino[1,2-b]indazole-3-carboxylic Acid] | 1 to 100 nM
6 | CC[C@H](C)COc1cccc2c3n(nc12)CC(C(C)(C)C)n1cc(C(=O)O)c(=O)cc1-3 (mixture of isomers) [Example 2.6, 6-(tert-butyl)-10-((S)-2-methylbutoxy)-2-oxo-6,7-dihydro-2H-pyrido[2′,1′:3,4]pyrazino[1,2-b]indazole-3-carboxylic Acid] | < 1 nM
7 | CN(C)C(=O)COc1cccc2c3n(nc12)CC(C(C)(C)C)n1cc(C(=O)O)c(=O)cc1-3 (racemic) [Example 2.36, 6-(tert-butyl)-10-(2-(dimethylamino)-2-oxoethoxy)-2-oxo-6,7-dihydro-2H-pyrido[2′,1′:3,4]pyrazino[1,2-b]indazole-3-carboxylic Acid] | < 1 nM
8 | CC(C)(C)C1Cn2nc3c(OCCCOC(F)(F)F)cccc3c2-c2cc(=O)c(C(=O)O)cn21 (racemic) [Example 2.19, 6-(tert-butyl)-2-oxo-10-(3-(trifluoromethoxy)propoxy)-6,7-dihydro-2H-pyrido[2′,1′:3,4]pyrazino[1,2-b]indazole-3-carboxylic Acid] | < 1 nM
9 | CC(C)(C)C1Cn2nc3c(OC4CCOC4)cccc3c2-c2cc(=O)c(C(=O)O)cn21 (racemic) [Example 2.37, 6-(tert-butyl)-2-oxo-10-((tetrahydrofuran-3-yl)oxy)-6,7-dihydro-2H-pyrido[2′,1′:3,4]pyrazino[1,2-b]indazole-3-carboxylic Acid] | 1 to 100 nM
10 | CCOCCCOc1cccc2c3n(nc12)CC(C(C)(C)C)n1cc(C(=O)O)c(=O)cc1-3 (racemic) [Example 2.14, 6-(tert-butyl)-10-(3-ethoxypropoxy)-2-oxo-6,7-dihydro-2H-pyrido[2′,1′:3,4]pyrazino[1,2-b]indazole-3-carboxylic Acid] | < 1 nM
11 | CCOC(=O)c1cn2c(cc1=O)-c1c3cccc(OCCCOC)c3nn1CC2C(C)(C)C (racemic) [Example 2.1i, ethyl 6-(tert-butyl)-10-(3-methoxypropoxy)-2-oxo-6,7-dihydro-2H-pyrido[2′,1′:3,4]pyrazino[1,2-b]indazole-3-carboxylate] | 1 to 100 nM
12 | CCCOc1cccc2c3n(nc12)CC(C(C)(C)C)n1cc(C(=O)O)c(=O)cc1-3 (racemic) [Example 2.11, 6-(tert-butyl)-2-oxo-10-propoxy-6,7-dihydro-2H-pyrido[2′,1′:3,4]pyrazino[1,2-b]indazole-3-carboxylic Acid] | < 1 nM

Same assay, conditions: read-out: HBsAg, EC50 = concentration at which HBsAg secretion was reduced 50% compared to DMSO control

Row | Compound | EC50
13 | COc1ccc2c3n(nc2c1)CC(C(C)(C)C)n1cc(C(=O)O)c(=O)cc1-3 (single isomer, unassigned) [Example 1.2-II, 6-(tert-butyl)-11-methoxy-2-oxo-6,7-dihydro-2H-pyrido[2′,1′:3,4]pyrazino[1,2-b]indazole-3-carboxylic acid] | 1 to 100 nM
14 | COCCOc1cccc2c3n(nc12)C1CCC(C)(C)C1n1cc(C(=O)O)c(=O)cc1-3 (single isomer, unassigned) [Example 6.2-II, 12-(2-methoxyethoxy)-3,3-dimethyl-7-oxo-2,3,3a,14a-tetrahydro-1H,7H-cyclopenta[5,6]pyrido[2′,1′:3,4]pyrazino[1,2-b]indazole-6-carboxylic Acid] | < 1 nM
15 | CC(C)(C)C1Cn2nc3ccccc3c2-c2cc(=O)c(C(=O)O)cn21 (single isomer, unassigned) [Example 1.5-I, 6-(tert-butyl)-2-oxo-6,7-dihydro-2H-pyrido[2′,1′:3,4]pyrazino[1,2-b]indazole-3-carboxylic acid] | 1 to 100 nM
16 | COc1cccc2nn3c(c12)-c1cc(=O)c(C(=O)O)cn1C(C(C)(C)C)C3 (single isomer, unassigned) [Example 1.4-II, 6-(tert-butyl)-13-methoxy-2-oxo-6,7-dihydro-2H-pyrido[2′,1′:3,4]pyrazino[1,2-b]indazole-3-carboxylic acid] | 1 to 100 nM
17 | COCCCOc1cccc2c3n(nc12)C1CCC(C)(C)C1n1cc(C(=O)O)c(=O)cc1-3 (single isomer, unassigned) [Example 6.1-II, 12-(3-methoxypropoxy)-3,3-dimethyl-7-oxo-2,3,3a,14a-tetrahydro-1H,7H-cyclopenta[5,6]pyrido[2′,1′:3,4]pyrazino[1,2-b]indazole-6-carboxylic Acid] | < 1 nM
18 | COc1cccc2c3n(nc12)C1COC(C)(C)C1n1cc(C(=O)O)c(=O)cc1-3 (single isomer, unassigned) [Example 10.1-II, 12-methoxy-3,3-dimethyl-7-oxo-1,3,3a,14a-tetrahydro-7H-furo[3′,4′:5,6]pyrido[2′,1′:3,4]pyrazino[1,2-b]indazole-6-carboxylic Acid] | 1 to 100 nM
19 | COCC(C)Oc1cccc2c3n(nc12)CC(C(C)(C)C)n1cc(C(=O)O)c(=O)cc1-3 (single isomer, unassigned) [Example 2.35-II, 6-(tert-butyl)-10-((1-methoxypropan-2-yl)oxy)-2-oxo-6,7-dihydro-2H-pyrido[2′,1′:3,4]pyrazino[1,2-b]indazole-3-carboxylic Acid] | 1 to 100 nM
20 | COCCCOc1cccc2c3n(nc12)CC(C(C)(C)COC)n1cc(C(=O)O)c(=O)cc1-3 (single isomer, unassigned) [Example 7.1-II, 6-(1-methoxy-2-methylpropan-2-yl)-10-(3-methoxypropoxy)-2-oxo-6,7-dihydro-2H-pyrido[2′,1′:3,4]pyrazino[1,2-b]indazole-3-carboxylic Acid] | < 1 nM
21 | CC1(C)CCC2C1n1cc(C(=O)O)c(=O)cc1-c1c3cccc(F)c3nn12 (single isomer, unassigned) [Example 5.2-II, 12-fluoro-3,3-dimethyl-7-oxo-2,3,3a,14a-tetrahydro-1H,7H-cyclopenta[5,6]pyrido[2′,1′:3,4]pyrazino[1,2-b]indazole-6-carboxylic Acid] | > 100 nM
